Legend:
Assay in all cases: GloSensor cAMP luminescence in HEK293T
Assay type in all cases: cell-based
Conditions in all cases: agonist; co-expressed Golf alpha and RTP1S; N = 12
Olfr1258 (mOR232-3) = target: T1, Olfr1258 (mOR232-3) (Mus musculus, UniProt Q8VGN6)
T1 construct: gene Or4c10; full-length from mouse genomic DNA in pCI-neo; N-terminal rhodopsin and myc tags; HEK293T with co-transfected Golf alpha, RTP1S and GloSensor-22F

Olfr168 (mOR271-1) = target: T2, Olfr168 (mOR271-1) (Mus musculus, UniProt A0PK36)
T2 construct: full-length from mouse genomic DNA in pCI-neo; N-terminal rhodopsin and myc tags; HEK293T with co-transfected Golf alpha, RTP1S and GloSensor-22F
T2 sequence (A0PK36 1-312): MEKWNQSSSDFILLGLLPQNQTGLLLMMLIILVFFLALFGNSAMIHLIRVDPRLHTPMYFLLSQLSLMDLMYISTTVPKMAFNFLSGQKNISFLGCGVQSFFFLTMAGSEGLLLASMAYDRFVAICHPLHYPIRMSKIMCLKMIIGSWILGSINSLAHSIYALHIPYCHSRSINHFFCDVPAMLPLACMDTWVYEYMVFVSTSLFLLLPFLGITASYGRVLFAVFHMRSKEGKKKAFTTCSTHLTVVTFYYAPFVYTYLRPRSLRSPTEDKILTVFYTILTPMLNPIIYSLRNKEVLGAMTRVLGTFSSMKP

Olfr45 (mOR253-2) = target: T3, Olfr45 (mOR253-2) (Mus musculus, UniProt A0JLW4)
T3 construct: full-length from mouse genomic DNA in pCI-neo; N-terminal rhodopsin and myc tags; HEK293T with co-transfected Golf alpha, RTP1S and GloSensor-22F
T3 sequence (A0JLW4 1-311): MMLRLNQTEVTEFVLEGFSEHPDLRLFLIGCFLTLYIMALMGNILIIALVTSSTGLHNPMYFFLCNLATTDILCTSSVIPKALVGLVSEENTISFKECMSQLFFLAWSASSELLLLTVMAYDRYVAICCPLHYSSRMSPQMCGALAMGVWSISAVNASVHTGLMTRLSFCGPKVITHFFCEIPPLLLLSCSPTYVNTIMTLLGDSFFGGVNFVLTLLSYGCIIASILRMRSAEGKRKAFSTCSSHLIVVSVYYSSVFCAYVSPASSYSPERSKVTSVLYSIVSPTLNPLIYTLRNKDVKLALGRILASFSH

Olfr166 (mOR270-1) = target: T4, Olfr166 (mOR270-1) (Mus musculus, UniProt Q0VEL6)
T4 construct: full-length from mouse genomic DNA in pCI-neo; N-terminal rhodopsin and myc tags; HEK293T with co-transfected Golf alpha, RTP1S and GloSensor-22F
T4 sequence (Q0VEL6 1-312): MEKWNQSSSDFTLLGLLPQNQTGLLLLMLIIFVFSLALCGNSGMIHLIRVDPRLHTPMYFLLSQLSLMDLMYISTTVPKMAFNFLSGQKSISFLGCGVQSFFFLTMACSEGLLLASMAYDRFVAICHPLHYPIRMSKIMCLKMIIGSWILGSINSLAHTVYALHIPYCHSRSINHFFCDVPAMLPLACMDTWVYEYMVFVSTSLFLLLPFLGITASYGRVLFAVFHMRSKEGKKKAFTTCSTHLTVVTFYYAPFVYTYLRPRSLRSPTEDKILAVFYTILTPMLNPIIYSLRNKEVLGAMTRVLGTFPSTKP

T1 sequence (Q8VGN6 1-311): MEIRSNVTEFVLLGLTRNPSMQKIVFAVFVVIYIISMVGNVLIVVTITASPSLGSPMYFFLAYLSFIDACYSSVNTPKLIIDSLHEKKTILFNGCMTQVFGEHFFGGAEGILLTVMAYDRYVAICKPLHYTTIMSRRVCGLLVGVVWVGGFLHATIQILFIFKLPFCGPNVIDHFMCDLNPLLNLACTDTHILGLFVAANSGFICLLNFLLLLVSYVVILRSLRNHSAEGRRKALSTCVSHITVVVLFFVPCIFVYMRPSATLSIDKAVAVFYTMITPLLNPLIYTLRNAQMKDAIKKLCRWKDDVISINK

## CCC(C)=O [2-butanone]
Olfr1258 (mOR232-3)
  GloSensor cAMP luminescence in HEK293T: Olfr1258 was activated by 2-butanone

## CCCC(C)=O [2-pentanone]
Olfr168 (mOR271-1)
  EC50: 2.1 ± 0.6 mM

## c1ccncc1 [pyridine]
Olfr45 (mOR253-2)
  GloSensor cAMP luminescence in HEK293T: both Olfr45 and Olfr166 were activated by pyridine
Olfr166 (mOR270-1)
  GloSensor cAMP luminescence in HEK293T: both Olfr45 and Olfr166 were activated by pyridine

From article PMC4735795, “Deciphering the Receptor Repertoire Encoding Specific Odorants by Time-Lapse Single-Cell Array Cytometry” (Scientific Reports, 2016)
